The record followed here is patent US20250382344A1, “Soluble GLP1/GIP/NPY2 Receptor Triple Agonists” (Boehringer Ingelheim International GmH, priority 2024, published 2025).

SMILES strings stand for the structures. pEC50: −log10 of the molar value. Like-named read-outs stand apart in the source and are kept apart here.

The nature of data set [1]: Solubility in 0.1 M phosphate buffer at pH 7. In kind it is physicochemical. The conditions noted are these: 0.1 M phosphate buffer at pH 7, 10 mg/mL final peptide concentration, shaking 2 hours at room temperature, peptides as TFA-salts; measured sample pH 6.5-7.0.
Another data set concerns the target T1, hGIPR (Homo sapiens, UniProt P48546).
T1 construct: expressed in transfected cells; host or cells: CHO CRE-luciferase reporter cells
T1 sequence (P48546 22-466): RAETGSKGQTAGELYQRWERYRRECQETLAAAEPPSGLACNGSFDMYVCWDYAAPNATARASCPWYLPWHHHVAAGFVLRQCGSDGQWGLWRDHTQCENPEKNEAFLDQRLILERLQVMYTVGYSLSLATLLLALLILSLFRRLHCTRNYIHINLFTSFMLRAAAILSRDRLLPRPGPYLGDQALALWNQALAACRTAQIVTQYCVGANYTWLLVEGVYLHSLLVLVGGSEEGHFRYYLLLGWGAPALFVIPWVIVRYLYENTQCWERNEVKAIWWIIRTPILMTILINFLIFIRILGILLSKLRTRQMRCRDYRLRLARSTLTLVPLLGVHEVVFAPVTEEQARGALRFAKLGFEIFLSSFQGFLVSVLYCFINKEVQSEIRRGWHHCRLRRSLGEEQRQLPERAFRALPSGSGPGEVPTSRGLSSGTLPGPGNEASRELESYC
The experiment in a line: hGIPR CreLuc assay in 0.5% and 100% plasma (CHO CRE-luciferase reporter cells). In kind it is cell-based. For orientation: A reporter such as luciferase makes a cellular process visible.

Setting [2] is: 0.5% human plasma, read-out: hGIPR 0.5% hP.
Where [3] appears, read: 100% human plasma, read-out: hGIPR 100% hP.

For orientation: solubility means the dissolved amount per volume that the medium holds. A word on the EC50: it is the concentration needed to bring the measured effect to its halfway point. A high value points to a less potent agent. For the compound `CC[C@H](C)[C@H](NC(=O)[C@H](CC(C)C)NC(=O)[C@H](Cc1c[nH]cn1)NC(=O)[C@H](CCCNC(=N)N)NC(=O)[C@@H](NC(=O)[C@H](Cc1ccccc1)NC(=O)[C@H](C)NC(=O)C(C)(C)NC(=O)[C@H](CCC(N)=O)NC(=O)[C@H](C)NC(=O)[C@H](CCC(N)=O)NC(=O)[C@H](CCCCN)NC(=O)[C@H](CCC(=O)O)NC(=O)[C@H](CC(C)C)NC(=O)C(C)(C)NC(=O)[C@@H](NC(=O)[C@H](CO)NC(=O)[C@H](CC(C)C)NC(=O)[C@H](CC(=O)O)NC(=O)[C@H](CO)NC(=O)[C@@H](NC(=O)[C@H](Cc1ccccc1)NC(=O)[C@@H](NC(=O)CNC(=O)[C@H](CCC(=O)O)NC(=O)C(C)(C)NC(=O)[C@@H](N)Cc1ccc(O)cc1)[C@@H](C)O)[C@@H](C)O)[C@@H](C)CC)C(C)C)C(=O)N[C@@H](CC(N)=O)C(=O)N[C@@H](CCCCNC(=O)[C@@H](N)CCCCNC(=O)CC[C@H](NC(=O)CC[C@H](NC(=O)CC[C@H](NC(=O)CC[C@H](NC(=O)CC[C@H](NC(=O)CC[C@H](NC(=O)CC[C@H](NC(=O)CCCCCCCCCCCCCCCCCCC(=O)O)C(=O)O)C(=O)O)C(=O)O)C(=O)O)C(=O)O)C(=O)O)C(=O)O)C(=O)NC(C)(C)C(=O)N[C@H](C(=O)N[C@@H](CCCNC(=N)N)C(=O)N[C@@H](CCC(N)=O)C(=O)N[C@@H](CCCNC(=N)N)C(=O)N[C@@H](Cc1ccc(O)cc1)C(N)=O)[C@@H](C)O` [Compound 135, Y-Aib-E-G-T-F-T-S-D-L-S-I-Aib-L-E-K-Q-A-Q-Aib-A-F-V-R-H-L-I-N-K(1,3)-Aib-T-R-Q-R-Y-NH2.C20DA-gGlu-gGlu-gGlu-gGlu-gGlu-gGlu-gGlu-eLys(1,2)], the solubility at 2 h in data set [1] turned out to be 9200 µg/mL. The EC50 at hGIPR (hGIPR 0.5% hP (nM), 0.5% human plasma) is 0.5 nM.
As for `CC[C@H](C)[C@H](NC(=O)[C@H](CC(C)C)NC(=O)[C@H](Cc1c[nH]cn1)NC(=O)[C@H](CCCNC(=N)N)NC(=O)[C@@H](NC(=O)[C@H](Cc1ccccc1)NC(=O)[C@H](C)NC(=O)C(C)(C)NC(=O)[C@H](CCC(N)=O)NC(=O)[C@H](C)NC(=O)[C@H](CCC(N)=O)NC(=O)[C@H](CCCCN)NC(=O)[C@H](CCC(=O)O)NC(=O)[C@H](CC(C)C)NC(=O)C(C)(C)NC(=O)[C@@H](NC(=O)[C@H](CO)NC(=O)[C@H](Cc1ccc(O)cc1)NC(=O)[C@H](CC(=O)O)NC(=O)[C@H](CO)NC(=O)[C@@H](NC(=O)[C@H](Cc1ccccc1)NC(=O)[C@@H](NC(=O)CNC(=O)[C@H](CCC(=O)O)NC(=O)C(C)(C)NC(=O)[C@@H](N)Cc1ccc(O)cc1)[C@@H](C)O)[C@@H](C)O)[C@@H](C)CC)C(C)C)C(=O)N[C@@H](CC(N)=O)C(=O)N[C@@H](CCCCNC(=O)CC[C@H](NC(=O)CC[C@H](NC(=O)COCCOCCNC(=O)CC[C@H](NC(=O)CC[C@H](NC(=O)CC[C@H](NC(=O)CC[C@H](NC(=O)CCCCCCCCCCCCCCCCCCC(=O)O)C(=O)O)C(=O)O)C(=O)O)C(=O)O)C(=O)O)C(=O)O)C(=O)NC(C)(C)C(=O)N[C@H](C(=O)N[C@@H](CCCNC(=N)N)C(=O)N[C@@H](CCC(N)=O)C(=O)N[C@@H](CCCNC(=N)N)C(=O)N[C@@H](Cc1ccc(O)cc1)C(N)=O)[C@@H](C)O` [Compound 136, Y-Aib-E-G-T-F-T-S-D-Y-S-I-Aib-L-E-K-Q-A-Q-Aib-A-F-V-R-H-L-I-N-K(1,3)-Aib-T-R-Q-R-Y-NH2.C20DA-gGlu-gGlu-gGlu-gGlu-OEG-gGlu-gGlu(1,2)], the solubility at 2 h in data set [1] was 9600 µg/mL. Also, the pEC50 at hGIPR (setting [2]) is 9.30.
Take `CC[C@H](C)[C@H](NC(=O)[C@H](CC(C)C)NC(=O)[C@H](Cc1c[nH]cn1)NC(=O)[C@H](CCCNC(=N)N)NC(=O)[C@@H](NC(=O)[C@H](Cc1ccccc1)NC(=O)[C@H](C)NC(=O)C(C)(C)NC(=O)[C@H](CCC(N)=O)NC(=O)[C@H](C)NC(=O)[C@H](CCC(N)=O)NC(=O)[C@H](CCCCN)NC(=O)[C@H](CCC(=O)O)NC(=O)[C@H](CC(C)C)NC(=O)C(C)(C)NC(=O)[C@@H](NC(=O)[C@H](CO)NC(=O)[C@H](Cc1ccc(O)cc1)NC(=O)[C@H](CC(=O)O)NC(=O)[C@H](CO)NC(=O)[C@@H](NC(=O)[C@H](Cc1ccccc1)NC(=O)[C@@H](NC(=O)CNC(=O)[C@H](CCC(=O)O)NC(=O)C(C)(C)NC(=O)[C@@H](N)Cc1ccc(O)cc1)[C@@H](C)O)[C@@H](C)O)[C@@H](C)CC)C(C)C)C(=O)N[C@@H](CC(N)=O)C(=O)N[C@@H](CCCCNC(=O)[C@@H](N)CCCCNC(=O)CC[C@H](NC(=O)CC[C@H](NC(=O)CC[C@H](NC(=O)CC[C@H](NC(=O)CC[C@H](NC(=O)CC[C@H](NC(=O)[C@H]1CC[C@H](CNC(=O)CCCCCCCCCCCCCCCCC(=O)O)CC1)C(=O)O)C(=O)O)C(=O)O)C(=O)O)C(=O)O)C(=O)O)C(=O)NC(C)(C)C(=O)N[C@H](C(=O)N[C@@H](CCCNC(=N)N)C(=O)N[C@@H](CCC(N)=O)C(=O)N[C@@H](CCCNC(=N)N)C(=O)N[C@@H](Cc1ccc(O)cc1)C(N)=O)[C@@H](C)O` [Compound 137, Y-Aib-E-G-T-F-T-S-D-Y-S-I-Aib-L-E-K-Q-A-Q-Aib-A-F-V-R-H-L-I-N-K(1,3)-Aib-T-R-Q-R-Y-NH2.C18DA-TRX-gGlu-gGlu-gGlu-gGlu-gGlu-gGlu-eLys(1,2)]: the solubility at 2 h in data set [1] was 4300 µg/mL. The pEC50 at hGIPR (setting [2]) was 9.30; on hGIPR (setting [3]), 7.94.
For the compound `CC[C@H](C)[C@H](NC(=O)[C@H](CC(C)C)NC(=O)[C@H](Cc1c[nH]cn1)NC(=O)[C@H](CCCNC(=N)N)NC(=O)[C@@H](NC(=O)[C@H](Cc1ccccc1)NC(=O)[C@H](C)NC(=O)C(C)(C)NC(=O)[C@H](CCC(N)=O)NC(=O)[C@H](C)NC(=O)[C@H](CCC(N)=O)NC(=O)[C@H](CCC(=O)O)NC(=O)[C@H](CC(=O)O)NC(=O)[C@H](CC(C)C)NC(=O)C(C)(C)NC(=O)[C@@H](NC(=O)[C@H](CO)NC(=O)[C@H](Cc1ccc(O)cc1)NC(=O)[C@H](CC(=O)O)NC(=O)[C@H](CO)NC(=O)[C@@H](NC(=O)[C@H](Cc1ccccc1)NC(=O)[C@@H](NC(=O)CNC(=O)[C@H](CCC(=O)O)NC(=O)C(C)(C)NC(=O)[C@@H](N)Cc1ccc(O)cc1)[C@@H](C)O)[C@@H](C)O)[C@@H](C)CC)C(C)C)C(=O)N[C@@H](CC(N)=O)C(=O)N[C@@H](CCCCNC(=O)[C@@H](N)CCCCNC(=O)CC[C@H](NC(=O)CC[C@H](NC(=O)CC[C@H](NC(=O)CC[C@H](NC(=O)CC[C@H](NC(=O)CCCCCCCCCCCCCCCCCCC(=O)O)C(=O)O)C(=O)O)C(=O)O)C(=O)O)C(=O)O)C(=O)NC(C)(C)C(=O)N[C@H](C(=O)N[C@@H](CCCNC(=N)N)C(=O)N[C@@H](CCC(N)=O)C(=O)N[C@@H](CCCNC(=N)N)C(=O)N[C@@H](Cc1ccc(O)cc1)C(N)=O)[C@@H](C)O` [Compound 138, Y-Aib-E-G-T-F-T-S-D-Y-S-I-Aib-L-D-E-Q-A-Q-Aib-A-F-V-R-H-L-I-N-K(1,3)-Aib-T-R-Q-R-Y-NH2.C20DA-gGlu-gGlu-gGlu-gGlu-gGlu-eLys(1,2)], the solubility at 2 h in data set [1] was found to be 9300 µg/mL. Also, the pEC50 on hGIPR (setting [2]) is 9.30; on hGIPR (setting [3]), 7.94.
On to `CC[C@H](C)[C@H](NC(=O)[C@H](CC(C)C)NC(=O)[C@H](Cc1c[nH]cn1)NC(=O)[C@H](CCCNC(=N)N)NC(=O)[C@@H](NC(=O)[C@H](Cc1ccccc1)NC(=O)[C@H](CO)NC(=O)C(C)(C)NC(=O)[C@H](CCC(N)=O)NC(=O)[C@H](C)NC(=O)[C@H](CCC(N)=O)NC(=O)[C@H](CCCCN)NC(=O)[C@H](CCC(=O)O)NC(=O)[C@H](CC(C)C)NC(=O)C(C)(C)NC(=O)[C@@H](NC(=O)[C@H](CO)NC(=O)[C@H](Cc1ccc(O)cc1)NC(=O)[C@H](CC(=O)O)NC(=O)[C@H](CO)NC(=O)[C@@H](NC(=O)[C@H](Cc1ccccc1)NC(=O)[C@@H](NC(=O)CNC(=O)[C@H](CCC(=O)O)NC(=O)C(C)(C)NC(=O)[C@@H](N)Cc1ccc(O)cc1)[C@@H](C)O)[C@@H](C)O)[C@@H](C)CC)C(C)C)C(=O)N[C@@H](CC(N)=O)C(=O)N[C@@H](CCCCNC(=O)[C@@H](N)CCCCNC(=O)CC[C@H](NC(=O)CC[C@H](NC(=O)CC[C@H](NC(=O)CC[C@H](NC(=O)CC[C@H](NC(=O)CC[C@H](NC(=O)CCCCCCCCCCCCCCCCC(=O)O)C(=O)O)C(=O)O)C(=O)O)C(=O)O)C(=O)O)C(=O)O)C(=O)NC(C)(C)C(=O)N[C@H](C(=O)N[C@@H](CCCNC(=N)N)C(=O)N[C@@H](CCC(N)=O)C(=O)N[C@@H](CCCNC(=N)N)C(=O)N[C@@H](Cc1ccc(O)cc1)C(N)=O)[C@@H](C)O` [Compound 144, Y-Aib-E-G-T-F-T-S-D-Y-S-I-Aib-L-E-K-Q-A-Q-Aib-S-F-V-R-H-L-I-N-K(1,3)-Aib-T-R-Q-R-Y-NH2.C18DA-gGlu-gGlu-gGlu-gGlu-gGlu-gGlu-eLys(1,2)], for which the solubility at 2 h in data set [1] was found to be 4300 µg/mL. The pEC50 at hGIPR (setting [2]) is 9.40.
